Tested on: 299254-011-R-J1-PDC complex spheroid viability
Assay: Anticancer human tumor 299254-011-R-J1-PDC patient-derived melanoma cell line growth inhibition [POLQ]
Details: for IC50: curve of first compound; for viability, T/C: stronger effect = lower value
Experimental: Multicellular complex tumor spheroid response to Polymerase (POL) inhibitors (novobiocin, ART-558, RP6685) in combination with a variety of drugs and investigational agents in selected tumor cell lines
The POL inhibitors (novobiocin, ART-558, and RP6685) were evaluated both individually and in combination with standard of care and investigational anticancer small molecules within a complex spheroid model of solid tumors. . Complex spheroids include a stromal component modeled by human endothelial cells (HUVEC) and fibroblasts modeled by human mesenchymal stem cells (MSCs). The concentration ranges selected for each drug and investigational agent were based upon clinically achievable concentrations if the clinical Cmax of the agent was known.
Compounds. The drugs and investigational agents: novobiocin (NSC847541), ART-558 (NSC835418), RP-6685 (NSC848927), peposertib (NSC802822), ceralasertib (NSC780249), elimusertib (NSC800525), camonsertib (NSC841442), AZD-1390 (NSC803789), olaparib (NSC753686), talazoparib (NSC767125), rucaparib (NSC756644), sotorasib (NSC818433), MRTX-1133 (NSC836407), SN-38 (NSC673596), topotecan (NSC609699), epotoside (NSC141540), doxorubicin (NSC123127), gemcitabine (NSC613327), 5-fluorouracil (NSC19893), paclitaxel (NSC125973), vemurafenib (NSC761431), MSA-2 (NSC828583), SN-011 (NSC837082), adavosertib (NSC754352), prexasertib (NSC758257), carboplatin (NSC241240) and oxaliplatin (NSC266046), were obtained from the National Cancer Institute (NCI) Developmental Therapeutics Program Chemical Repository (21). The FDA-approved anticancer drug set is available from the Developmental Therapeutics Program at https://dtp.cancer.gov/organization/dscb/obtaining/. […] The stock solutions were prepared in dimethyl sulfoxide (DMSO, Sigma-Aldrich, St. Louis, MO, cat. D2650), except for the platinum compounds which were prepared in saline (Quality Biological, Gaithersburg, MD, cat. 114-055-101), at 800-fold the tested concentration and stored at -70 degrees C prior to their use. All drugs and investigational agents were tested over a range starting from a high concentration at or near the clinical Cmax and decreasing in half-log increments. If the clinical Cmax for an agent had not been determined, the highest concentration tested was 10 microM, except for SN-38, which was tested at a high concentration of 1 microM.
Cell Culture. All cells were maintained in an incubator at 37 degrees C and 5% CO2 with 95% humidity. The PDC lines were cultured according to standard operating procedures established by the NCI PDMR (https://pdmr.cancer.gov). Table 3 of the manuscript, lists the cell lines along with the number of the three cell types plated to form the mct-spheroids and media for tumor cell growth. After thawing, all PDC lines, except 997537-175-T-J1-PDC and 415267-285-R-J2-PDC, were cultured in Matrigel-coated flasks prepared with a working solution of 1X Ham's F-12 nutrient mix, without supplementation (Thermo Fisher Scientific, cat. 11765054), 100 U/mL penicillin-streptomycin (Thermo Fisher Scientific, cat. 15140122), and 2.5% Matrigel (Corning Inc., Corning, NY, cat. 354248) for the first three passages. The two PDC lines 997537-175-T-J1-PDC and 415267-285-R-J2-PDC were cultured on uncoated flasks. The 857933-349-R-J2-PDC line was cultured in 6C/Colon 1B media containing advanced DMEM/F-12 (Thermo Fisher Scientific, cat. 12634028), 10 mM HEPES (Thermo Fisher Scientific, cat. 15630080), 1X GlutaMAX supplement (Thermo Fisher Scientific, cat. 35050061), 0.1 mg/mL primocin (InvivoGen, San Diego, CA, cat. ant-pm-2), 10% defined fetal bovine serum, heat inactivated (HyClone Laboratories Inc., Logan, UT, cat. SH30070.03HI), 50% L-WRN conditioned media (ATCC, cat. CRL-3276), 1.25 mM N-Acetyl-L-cysteine (Sigma-Aldrich, cat. A9165), 10 mM nicotinamide (Sigma-Aldrich, cat. N0636), 1X B-27 supplement (Thermo Fisher Scientific, cat. 17504044), 1X N-2 supplement (Thermo Fisher Scientific, cat. […]
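Note: spheroids exposed to drugs for one week before measurement.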
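Throughout, for viability, T/C: percent viability relative to DMSO vehicle control taken as 100%.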

Compound: C#Cc1c(F)ccc2cc(O)cc(-c3ncc4c(N5CC6CCC(C5)N6)nc(OCC56CCCN5CC(F)C6)nc4c3F)c12 (configuration not stated) + Cc1cccc(N(C)C(=O)C2C(O)CCN2c2nc(C)cc(C(F)(F)F)c2C#N)c1
- IC50 (second compound 0.0316 µM): > 10 µM
- IC50 (second compound 0.1 µM): > 10 µM
- IC50 (second compound 0.316 µM): > 10 µM
- IC50 (second compound 1 µM): > 10 µM
- IC50 (second compound 3.16 µM): > 10 µM
- IC50 (second compound 10 µM): > 10 µM
- viability, T/C (second compound 0.0316 µM, first compound 0.0316 µM): 113%
- viability, T/C (second compound 0.0316 µM, first compound 0.1 µM): 102%
- viability, T/C (second compound 0.0316 µM, first compound 0.316 µM): 123%
- viability, T/C (second compound 0.0316 µM, first compound 1 µM): 120%
- viability, T/C (second compound 0.0316 µM, first compound 3.16 µM): 124%
- viability, T/C (second compound 0.0316 µM, first compound 10 µM): 93.9%
- viability, T/C (second compound 0.1 µM, first compound 0.0316 µM): 105%
- viability, T/C (second compound 0.1 µM, first compound 0.1 µM): 122%
- viability, T/C (second compound 0.1 µM, first compound 0.316 µM): 120%
- viability, T/C (second compound 0.1 µM, first compound 1 µM): 125%
- viability, T/C (second compound 0.1 µM, first compound 3.16 µM): 97.8%
- viability, T/C (second compound 0.1 µM, first compound 10 µM): 85.5%
- viability, T/C (second compound 0.316 µM, first compound 0.0316 µM): 105%
- viability, T/C (second compound 0.316 µM, first compound 0.1 µM): 108%
- viability, T/C (second compound 0.316 µM, first compound 0.316 µM): 124%
- viability, T/C (second compound 0.316 µM, first compound 1 µM): 99.2%
- viability, T/C (second compound 0.316 µM, first compound 3.16 µM): 114%
- viability, T/C (second compound 0.316 µM, first compound 10 µM): 75.5%
- viability, T/C (second compound 1 µM, first compound 0.0316 µM): 123%
- viability, T/C (second compound 1 µM, first compound 0.1 µM): 109%
- viability, T/C (second compound 1 µM, first compound 0.316 µM): 113%
- viability, T/C (second compound 1 µM, first compound 1 µM): 113%
- viability, T/C (second compound 1 µM, first compound 3.16 µM): 103%
- viability, T/C (second compound 1 µM, first compound 10 µM): 74.6%
- viability, T/C (second compound 3.16 µM, first compound 0.0316 µM): 114%
- viability, T/C (second compound 3.16 µM, first compound 0.1 µM): 99.9%
- viability, T/C (second compound 3.16 µM, first compound 0.316 µM): 118%
- viability, T/C (second compound 3.16 µM, first compound 1 µM): 111%
- viability, T/C (second compound 3.16 µM, first compound 3.16 µM): 92%
- viability, T/C (second compound 3.16 µM, first compound 10 µM): 78.1%
- viability, T/C (second compound 10 µM, first compound 0.0316 µM): 110%
- viability, T/C (second compound 10 µM, first compound 0.1 µM): 108%
- viability, T/C (second compound 10 µM, first compound 0.316 µM): 108%
- viability, T/C (second compound 10 µM, first compound 1 µM): 105%
- viability, T/C (second compound 10 µM, first compound 3.16 µM): 80.1%
- viability, T/C (second compound 10 µM, first compound 10 µM): 64.2%

From PubChem BioAssay AID1963849 (Molecular Pharmacology Branch, DTP, NCI, 2024)
